# From publication PMC9032380, “Functional exploration of the glycoside hydrolase family GH113” (PLoS ONE, 2022)
# What was measured:
# Assay in all cases: HPAEC-PAD of hydrolysis products
# Format in all cases: biochemical
# AGY82530 = biological target: T1, AGY82530 (Carnobacterium inhibens, UniProt A0ABR7TC15); details: […] M6, […] phosphate pH […] C; overnight incubation
# T1 construct: gene GLO26_06385; predicted GH113 catalytic domain; no signal peptide predicted; N-terminal His6 tag (pHTP1), E. coli BL21(DE3); codon-optimised synthetic gene
# T1 sequence (A0ABR7TC15 1-309): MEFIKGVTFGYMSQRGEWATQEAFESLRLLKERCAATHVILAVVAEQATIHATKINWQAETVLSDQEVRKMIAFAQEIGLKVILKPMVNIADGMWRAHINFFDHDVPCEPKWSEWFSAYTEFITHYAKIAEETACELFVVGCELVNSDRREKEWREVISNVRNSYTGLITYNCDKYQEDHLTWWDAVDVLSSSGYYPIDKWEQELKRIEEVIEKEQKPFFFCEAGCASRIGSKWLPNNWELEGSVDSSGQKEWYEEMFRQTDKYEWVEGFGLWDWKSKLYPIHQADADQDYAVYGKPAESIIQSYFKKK
# AIQ46016 = biological target: T2, AIQ46016 (Paenibacillus sp. FSL R7-0273, UniProt A0A089KA84); details: […] M6, […] phosphate pH […] C; overnight incubation
# T2 construct: gene R70723_09070; predicted GH113 catalytic domain; no signal peptide predicted; N-terminal His6 tag (pHTP1), E. coli BL21(DE3); codon-optimised synthetic gene
# T2 sequence (A0A089KA84 1-318): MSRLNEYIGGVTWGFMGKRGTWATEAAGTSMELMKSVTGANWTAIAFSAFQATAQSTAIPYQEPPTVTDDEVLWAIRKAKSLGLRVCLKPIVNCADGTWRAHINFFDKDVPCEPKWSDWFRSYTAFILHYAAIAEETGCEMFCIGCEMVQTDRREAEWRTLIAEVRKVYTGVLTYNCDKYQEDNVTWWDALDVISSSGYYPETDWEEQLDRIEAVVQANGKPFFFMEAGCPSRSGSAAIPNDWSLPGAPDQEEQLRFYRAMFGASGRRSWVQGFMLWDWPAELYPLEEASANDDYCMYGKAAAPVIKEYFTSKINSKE
# EDP22100 = biological target: T3, EDP22100 (Faecalibacterium prausnitzii, UniProt A8S9T0); details: 100 uM M6, 10 mM phosphate pH 7.5, 25 C; reaction time course
# T3 construct: gene FAEPRAM212_01134; predicted GH113 catalytic domain; no signal peptide predicted; N-terminal His6 tag (pHTP1), E. coli BL21(DE3); codon-optimised synthetic gene
# T3 sequence (A8S9T0 1-309): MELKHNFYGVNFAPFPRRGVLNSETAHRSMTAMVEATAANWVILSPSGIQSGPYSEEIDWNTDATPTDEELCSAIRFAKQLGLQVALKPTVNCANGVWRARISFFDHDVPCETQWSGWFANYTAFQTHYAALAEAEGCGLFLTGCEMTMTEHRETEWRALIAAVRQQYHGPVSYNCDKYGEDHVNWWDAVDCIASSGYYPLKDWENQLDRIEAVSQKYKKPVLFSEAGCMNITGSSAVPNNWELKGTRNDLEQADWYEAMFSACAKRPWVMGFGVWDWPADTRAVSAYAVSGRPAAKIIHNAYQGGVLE
structure (smiles),measurement,setting,value
"OC[C@H]1O[C@@H](O[C@H]2[C@H](O)[C@H](O)[C@H](O[C@H]3[C@H](O)[C@H](O)[C@H](O[C@H]4[C@H](O)[C@H](O)[C@H](O[C@H]5[C@H](O)[C@H](O)[C@H](O[C@H]6[C@H](O)[C@H](O)C(O)O[C@@H]6CO)O[C@@H]5CO)O[C@@H]4CO)O[C@@H]3CO)O[C@@H]2CO)[C@@H](O)[C@@H](O)[C@@H]1O (stereo partly drawn) [M6, mannohexaose]",HPAEC-PAD of hydrolysis products,AGY82530,"end-products released by AGY82530, AGF59019, AIQ46016 and AIQ63165 after overnight incubation with M6"
same,HPAEC-PAD of hydrolysis products,AIQ46016,"end-products released by AGY82530, AGF59019, AIQ46016 and AIQ63165 after overnight incubation with M6"
same,HPAEC-PAD of hydrolysis products,EDP22100,confirming the release of mannose from mannohexaose (M6)
